The values below come from patent publication US20230114241A1, “METHODS OF TREATING EPILEPSY USING THE SAME” (Trevena, Inc., priority 2019, published 2023).

SMILES strings stand for the structures. A value given as a limit tells only on which side of the number the result lay.

The target in experiment [1] is T1, human sphingosine-1-phosphate receptor 1 (S1P1) (Homo sapiens, UniProt P21453). Kind of experiment: Inhibition of cAMP production (HTRF cAMP HiRange), S1P1 CHO-K1 cells. Conditions: for Emax: CHO-K1, efficacy normalized to maximum efficacy of fingolimod, read-out: hS1P1 CAMP SPAN; for EC50: read-out: hS1P1 CAMP pEC50 (converted). It counts as cell-based. A digest of the protocol: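 CHO-K1 cells co-expressing human S1P1 (C-terminal ProLink tag) and EA-β-arrestin2, plated overnight; after 30 min compound incubation at 37 °C, intracellular cAMP measured by HTRF TR-FRET following 1 h at room temperature. Values normalized to fingolimod.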
On the technique in general: Cyclic AMP is a second messenger, typically raised through Gs and lowered through Gi signalling.
Target sequence in this assay (P21453 whole entry): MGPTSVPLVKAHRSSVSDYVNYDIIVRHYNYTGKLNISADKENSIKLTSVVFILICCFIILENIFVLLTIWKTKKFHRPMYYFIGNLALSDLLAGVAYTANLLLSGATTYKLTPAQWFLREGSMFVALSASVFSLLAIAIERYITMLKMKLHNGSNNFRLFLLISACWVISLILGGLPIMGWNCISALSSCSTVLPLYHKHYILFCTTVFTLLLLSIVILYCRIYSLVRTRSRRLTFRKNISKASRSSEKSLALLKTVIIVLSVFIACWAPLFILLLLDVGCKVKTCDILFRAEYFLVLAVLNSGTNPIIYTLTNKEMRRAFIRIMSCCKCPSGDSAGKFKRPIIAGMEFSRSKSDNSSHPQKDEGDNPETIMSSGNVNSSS

Experiment [2] deals with T1, human sphingosine-1-phosphate receptor 1 (S1P1). Description: β-Arrestin2 recruitment assay (PathHunter), S1P1 CHO-K1 cells. It counts as cell-based. The note with it: for Emax: efficacy normalized to maximum efficacy of fingolimod, read-out: hS1P1 B-arrestin2 SPAN; for EC50: β-arrestin2 recruitment, read-out: hS1P1 B-arrestin2 pEC50 (converted). The procedure: Stable clonal Chinese hamster ovary K1 (CHO-K1) cells co-expressing EA-β-arrestin2 and the human sphingosine-1-phosphate receptor 1 (NM_001400, S1P1) with a C-terminal Prolink™ tag were purchased from DiscoverX corporation (Cat #: 93-0207C2).
Cell lines were cultured in AssayComplete™ Media 6 (DiscoverX Corporation, Cat #: 920018GF2) at 37° C. and 5% CO2 in a humidified CO2 and temperature-controlled incubator. To begin assay plating, cells were washed with Dulbecco's phosphate buffered saline (CellGro, Cat #: 21-031-CV) and lifted from the culturing flask by incubation (37° C., 5 min) with CellStripper (Cellgro, Cat #: 25-056-CI). […] Plated cells were incubated overnight at 37° C. and 5% CO2 in a humidified CO2 and temperature-controlled incubator.
Agonist-promoted β-arrestin2 recruitment to the sphingosine-1-phosphate 1 receptor was determined using the β-arrestin PathHunter® Detection kit (DiscoverX Corporation, Cat #: 93-0001). […] In cells that stably express these fusion proteins, stimulation with a cognate agonist results in the interaction of β-arrestin2 and the Prolink™-tagged GPCR. This allows the complementation of the two β-galactosidase fragments and results in the formation of a functional enzyme with β-galactosidase activity. […] Following a 60 minute incubation at 37° C. and 5% CO2 in a humidified CO2 and temperature-controlled incubator, the components of the β-arrestin PathHunter® Detection kit were added as per the manufacturer's instructions. After an hour incubation at room temperature, plates were analyzed by a BMG PheraStar microplate reader.
These values are normalized to fingolimod, a known agonist of the sphingosine-1-phosphate 1 receptor.
Target sequence in this assay (P21453 whole entry): as above
Target sequence in this assay (P32121 whole entry partner): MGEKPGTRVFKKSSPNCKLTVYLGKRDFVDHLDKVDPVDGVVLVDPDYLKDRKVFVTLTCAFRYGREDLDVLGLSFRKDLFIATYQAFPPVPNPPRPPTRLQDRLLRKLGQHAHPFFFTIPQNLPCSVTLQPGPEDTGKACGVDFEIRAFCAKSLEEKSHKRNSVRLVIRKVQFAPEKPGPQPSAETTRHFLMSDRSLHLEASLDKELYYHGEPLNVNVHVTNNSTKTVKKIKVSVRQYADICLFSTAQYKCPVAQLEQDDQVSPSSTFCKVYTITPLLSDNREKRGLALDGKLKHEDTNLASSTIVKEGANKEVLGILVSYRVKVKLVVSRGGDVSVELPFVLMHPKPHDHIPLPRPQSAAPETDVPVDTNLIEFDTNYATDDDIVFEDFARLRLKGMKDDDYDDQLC
On the technique in general: Recruitment of arrestin is a read-out of receptor activation apart from second messengers.

Where [3] appears, read: inhibition of cAMP production, potency.
The mark [4] stands for this setting: CHO-K1, β-arrestin2 recruitment.
[5] abbreviates: inhibition of cAMP production, S1P1.

`FC(F)(F)c1cccc(-c2nc(-c3ccc4c(c3)nnn4C3CCCC3)no2)c1` [Compound 12, 3-(1-cyclopentyl-1H-benzo[d][1,2,3]triazol-5-yl)-5-(3-(trifluoro-methyl)phenyl)-1,2,4-oxadiazole]: the Emax in experiment [1] (inhibition of cAMP production) and in experiment [2] (setting [4]) was under 75% throughout. The EC50 in experiment [1] (setting [3]) is over 0.316 µM; in experiment [2] (potency) it was over 10 µM.
`CCC1(CC)CC(=O)c2cc(-c3nc(-c4cnc[nH]4)no3)ccc2O1` [Compound 466, 6-(3-(1H-imidazol-5-yl)-1,2,4-oxadiazol-5-yl)-2,2-diethylchroman-4-one]: the Emax in experiment [1] and in experiment [2] (CHO-K1) was over 75% in each case. The EC50 in experiment [1] (setting [5]) was over 0.316 µM; in experiment [2] (S1P1), over 10 µM.
Regarding `CC(C)n1nnc2cc(-c3nc(-c4ccccc4Br)no3)cnc21` [Compound 413, 3-(2-bromophenyl)-5-[3-(propan-2-yl)-3H-[1,2,3]triazolo[4,5-b]pyridin-6-yl]-1,2,4-oxadiazole], the Emax was under 75% in experiment [1] and over 75% in experiment [2] (CHO-K1). Further, the figures for the EC50 in experiment [1] (setting [5]) and in experiment [2] (S1P1) were under 0.316 µM and under 10 µM, respectively.
As to `CC(C)Nc1ccc(-c2ncc(-c3ccc4c(c3)nnn4C(C)C)cn2)cc1C#N` [Compound 596, 5-(5-(1-isopropyl-1H-benzo[d][1,2,3]triazol-5-yl)pyrimidin-2-yl)-2-(isopropyl-amino)benzonitrile], the Emax in experiment [1] is under 75%; in experiment [2] (CHO-K1), over 75%. Also, the EC50 in experiment [1] (setting [5]) is under 0.316 µM; in experiment [2] (S1P1), under 10 µM.
In the case of `Cc1nc(-c2ccccc2)oc1-c1cnc2c(c1)CC(=O)N2` [Compound 360, 5-(4-methyl-2-phenyl-1,3-oxazol-5-yl)-1H,2H,3H-pyrrolo[2,3-b]pyridin-2-one], the Emax in experiment [1] (inhibition of cAMP production) and in experiment [2] (setting [4]) was under 75% throughout. The EC50 in experiment [1] (setting [3]) is over 0.316 µM; in experiment [2] (potency), over 10 µM.
Turning to `OCCCn1nnc2cc(-c3noc(-c4ccccc4Br)n3)ccc21` [Compound 24, 3-(5-(5-(2-bromophenyl)-1,2,4-oxadiazol-3-yl)-1H-benzo[d][1,2,3]triazol-1-yl)propan-1-ol], the Emax in experiment [1] (inhibition of cAMP production) is over 75%; in experiment [2] (setting [4]) it was under 75%. The EC50 in experiment [1] (setting [3]) is over 0.316 µM; in experiment [2] (potency), over 10 µM.
Regarding `CCC1(CC)CC(=O)c2cc(-c3nc(-c4ccc5c(c4)CC(=O)N5)no3)ccc2O1` [Compound 416, 5-(5-(2,2-diethyl-4-oxochroman-6-yl)-1,2,4-oxadiazol-3-yl)indolin-2-one], the Emax in experiment [1] and in experiment [2] (CHO-K1) was over 75% each time. In addition, the EC50 in experiment [1] (setting [5]) is under 0.316 µM; in experiment [2] (S1P1) it was under 10 µM.
Consider `CC1CC(=O)c2ccc(-c3nc(-c4ccncc4)no3)cc2O1` (centres unmarked) [Compound 536, 2-methyl-7-[3-(pyridin-4-yl)-1,2,4-oxadiazol-5-yl]-3,4-dihydro-2H-1-benzopyran-4-one], for which the Emax in experiment [1] and in experiment [2] (CHO-K1) was under 75% each time. In addition, the EC50 in experiment [1] (setting [5]) was over 0.316 µM; in experiment [2] (S1P1) it was under 10 µM.
Regarding `CSc1cccc(-c2nc(-c3ccc4c(c3)nnn4C3CCCC3)no2)c1` [Compound 47, 3-(1-cyclopentyl-1H-benzo[d][1,2,3]triazol-5-yl)-5-(3-(methylthio)phenyl)-1,2,4-oxadiazole], the Emax in experiment [1] (inhibition of cAMP production) and in experiment [2] (setting [4]) was under 75% each time. Besides, the EC50 in experiment [1] (setting [3]) was over 0.316 µM; in experiment [2] (potency) it was over 10 µM.
For the compound `COc1ccccc1-c1csc(-c2cnc3c(ccn3C(C)C)c2)n1` [Compound 401, 2-(1-isopropyl-1H-pyrrolo[2,3-b]pyridin-5-yl)-4-(2-methoxy-phenyl)thiazole], the Emax in experiment [1] and in experiment [2] (CHO-K1) was under 75% throughout. In addition, the EC50 is over 0.316 µM in experiment [1] (setting [5]) and over 10 µM in experiment [2] (S1P1).
Consider `Cc1ccccc1-c1nc(-c2ccc3c(c2)nnn3C(C)(C)CO)no1` [Compound 609, 2-methyl-2-(5-(5-(o-tolyl)-1,2,4-oxadiazol-3-yl)-1H-benzo[d] [1,2,3]triazol-1-yl)propan-1-ol], for which the Emax in experiment [1] and in experiment [2] (CHO-K1) was under 75% each time. Besides, the EC50 in experiment [1] (setting [5]) was under 0.316 µM; in experiment [2] (S1P1), over 10 µM.
